According to US20230002359A1, “PESTICIDALLY ACTIVE FUSED BICYCLIC HETEROAROMATIC COMPOUNDS” (priority 2019, published 2023):

Experiments:
Type in all cases: in vivo
[1] = system: Diabrotica Balteata (Corn Root Worm); assay: Example B1: Diabrotica balteata (corn root worm), maize sprouts sprayed, L2 larvae; conditions: 96 h, application rate of 200 ppm, 4 days after infestation, L2 larvae, read-out: control in at least one of the two categories (mortality or growth inhibition)
Method in brief: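 Spray test: maize sprouts on agar, aqueous dilutions of 10′000 ppm DMSO stock; after drying, 6–10 L2 larvae/well. Read-out at 4 d post-infestation: mortality and growth inhibition vs untreated.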

[2] = system: Chilo suppressalis (Striped Rice Stemborer); assay: Example B3: Chilo suppressalis (striped rice stemborer), artificial diet, L2 larvae; conditions: 144 h, application rate of 200 ppm, 6 days after infestation, L2 larvae, read-out: control in at least one of the three categories (mortality, anti-feedant effect, or growth inhibition)
Method in brief: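 Artificial diet treated with aqueous dilutions of DMSO stocks (10'000 ppm stock), dried, then infested with 6-8 L2 larvae per well. Mortality, anti-feeding and growth inhibition scored against untreated samples 6 days after infestation. Control counted when any category exceeds untreated.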

[3] = system: Plutella xylostella (Diamond Back Moth); assay: Example B4: Plutella xylostella (diamond back moth), artificial diet, eggs, 24-well; conditions: 192 h, application rate of 200 ppm, 8 days after infestation, eggs, read-out: control in at least one of the two categories (mortality or growth inhibition)
Procedure: 24-well microtiter plates with artificial diet were treated with aqueous test solutions prepared from 10′000 ppm DMSO stock solutions by pipetting. After drying, Plutella eggs were pipetted through a plastic stencil onto a gel blotting paper and the plate was closed with it. The samples were assessed for mortality and growth inhibition in comparison to untreated samples 8 days after infestation.

[4] = system: Spodoptera littoralis (Egyptian Cotton Leaf Worm); assay: Example B7: Spodoptera littoralis (Egyptian cotton leaf worm), cotton leaf discs sprayed, L1 larvae; conditions: foliar, 72 h, application rate of 200 ppm, 3 days after infestation, L1 larvae, read-out: control in at least one of the three categories (mortality, anti-feedant effect, or growth inhibition)
Method in brief: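 Read-out: mortality, feeding deterrence and growth inhibition, assessed 3 days after infestation relative to untreated samples. Sprayed, dried cotton leaf discs on agar each received five first-instar (L1) larvae; sprays were aqueous solutions prepared from 10′000 ppm DMSO stocks.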

CC(Nc1ncnc2c(OC(F)F)cc(Br)cc12)c1ncnn1-c1ccc(C#N)cn1 (stereo not shown) [P.244, 6-[5-[1-[[6-bromo-8-(difluoromethoxy)quinazo-lin-4-yl]amino]ethyl]-1,2,4-triazol-1-yl]pyridine-3-carbonitrile]
≥ 80%: percent control (mortality or growth inhibition) at 200 ppm [1] | percent control (mortality, anti-feedant effect or growth inhibition) at 200 ppm [2] | percent control (mortality or growth inhibition) at 200 ppm [3] | percent control (mortality, anti-feedant effect or growth inhibition) at 200 ppm [4]

C[C@@H](c1ncnn1-c1ccc(C#N)cn1)N(C)c1ncnc2c(C(F)(F)F)cc(C(F)(F)C3CC3)cc12 [P.163, 6-[5-[(1S)-1-[[6-[cyclopropyl(difluoro)meth-yl]-8-(trifluoromethyl)quinazolin-4-yl]-methyl-amino]ethyl]-1,2,4-triazol-1-yl]pyridine-3-carbonitrile]
≥ 80%: percent control (mortality or growth inhibition) at 200 ppm [1] | percent control (mortality, anti-feedant effect or growth inhibition) at 200 ppm [2] | percent control (mortality or growth inhibition) at 200 ppm [3] | percent control (mortality, anti-feedant effect or growth inhibition) at 200 ppm [4]

CC(c1nccnc1-c1ccc(OC(F)F)cn1)N(C)c1ncnc2c(C(F)(F)F)cc(Br)cc12 (stereo not shown) [P.273, 6-bromo-N-[1-[3-[5-(difluoromethoxy)-2-pyridyl]pyrazin-2-yl]ethyl]-N-methyl-8-(trifluoromethyl)quinazolin-4-amine]
≥ 80%: percent control (mortality or growth inhibition) at 200 ppm [1] | percent control (mortality, anti-feedant effect or growth inhibition) at 200 ppm [2] | percent control (mortality or growth inhibition) at 200 ppm [3] | percent control (mortality, anti-feedant effect or growth inhibition) at 200 ppm [4]

CC(c1ncnn1-c1ccc(F)cn1)N(C)c1ncnc2c(Br)cc(C(F)(F)F)cc12 (stereo not shown) [P.185, 8-bromo-N-[1-[2-(5-fluoro-2-pyridyl)-1,2,4-triazol-3-yl]ethyl]-N-methyl-6-(trifluoromethyl)quinazolin-4-amine]
≥ 80%: percent control (mortality or growth inhibition) at 200 ppm [1] | percent control (mortality, anti-feedant effect or growth inhibition) at 200 ppm [2] | percent control (mortality or growth inhibition) at 200 ppm [3] | percent control (mortality, anti-feedant effect or growth inhibition) at 200 ppm [4]

CC(c1nccnc1-n1nccn1)N(C)c1ncnc2c(C(F)(F)F)cc(C(F)(F)F)cc12 (stereo not shown) [P.103, N-methyl-N-[1-[3-(triazol-2-yl)pyrazin-2-yl]ethyl]-6,8-bis(trifluoromethyl)quina-zolin-4-amine]
≥ 80%: percent control (mortality or growth inhibition) at 200 ppm [1] | percent control (mortality, anti-feedant effect or growth inhibition) at 200 ppm [2] | percent control (mortality or growth inhibition) at 200 ppm [3] | percent control (mortality, anti-feedant effect or growth inhibition) at 200 ppm [4]

C[C@@H](c1ncnn1-c1ccc(C#N)cn1)N(C)c1ccnc2c(C(F)(F)F)cc(Br)cc12 [P.206, 6-[5-[(1S)-1-[[6-bromo-8-(trifluoromethyl)-4-quinolyl]-methyl-amino]ethyl]-1,2,4-triazol-1-yl]pyridine-3-carbonitrile]
≥ 80%: percent control (mortality or growth inhibition) at 200 ppm [1] | percent control (mortality, anti-feedant effect or growth inhibition) at 200 ppm [2] | percent control (mortality or growth inhibition) at 200 ppm [3] | percent control (mortality, anti-feedant effect or growth inhibition) at 200 ppm [4]

CC(Nc1ncnc2c(C(F)(F)F)cc(Cl)cc12)c1nccnc1-c1ccc(C#N)cn1 (stereo not shown) [P.118, 6-[3-[1-[[6-chloro-8-(trifluoromethyl)quinazolin-4-yl]amino]ethyl]pyrazin-2-yl]pyridine-3-carbonitrile]
≥ 80%: percent control (mortality or growth inhibition) at 200 ppm [1] | percent control (mortality, anti-feedant effect or growth inhibition) at 200 ppm [2] | percent control (mortality or growth inhibition) at 200 ppm [3] | percent control (mortality, anti-feedant effect or growth inhibition) at 200 ppm [4]

CC(Nc1ncnc2c(Br)cc(C(F)(F)F)cc12)c1nccnc1-c1ccc(C#N)cn1 (stereo not shown) [P.117, 6-[3-[1-[[8-bromo-6-(trifluoromethyl)quinazolin-4-yl]amino]ethyl]pyrazin-2-yl]pyridine-3-carbonitrile]
≥ 80%: percent control (mortality or growth inhibition) at 200 ppm [1] | percent control (mortality, anti-feedant effect or growth inhibition) at 200 ppm [2] | percent control (mortality or growth inhibition) at 200 ppm [3] | percent control (mortality, anti-feedant effect or growth inhibition) at 200 ppm [4]

CC(c1nc(Br)nn1-c1ncccn1)N(C)c1ncnc2c(Cl)cc(C(F)(F)F)cc12 (stereo not shown) [P.207, N-[1-(5-bromo-2-pyrimidin-2-yl-1,2,4-triazol-3-yl)ethyl]-8-chloro-N-methyl-6-(trifluoromethyl)quinazolin-4-amine]
≥ 80%: percent control (mortality or growth inhibition) at 200 ppm [1] | percent control (mortality, anti-feedant effect or growth inhibition) at 200 ppm [2] | percent control (mortality or growth inhibition) at 200 ppm [3] | percent control (mortality, anti-feedant effect or growth inhibition) at 200 ppm [4]

CC(Nc1ncnc2c(C(F)(F)F)cc(C(F)(F)F)cc12)c1nccnc1-c1ccc(C#N)cn1 (stereo not shown) [P.115, 6-[3-[1-[[6,8-bis(trifluoromethyl)quina-zolin-4-yl]amino]ethyl]pyrazin-2-yl]pyridine-3-carbonitrile]
≥ 80%: percent control (mortality or growth inhibition) at 200 ppm [1] | percent control (mortality, anti-feedant effect or growth inhibition) at 200 ppm [2] | percent control (mortality or growth inhibition) at 200 ppm [3] | percent control (mortality, anti-feedant effect or growth inhibition) at 200 ppm [4]

CC(c1nc(Br)nn1-c1ncccn1)N(C)c1ncnc2c(C(F)(F)F)cc(Cl)cc12 (stereo not shown) [P.205, N-[1-(5-bromo-2-pyrimidin-2-yl-1,2,4-triazol-3-yl)ethyl]-6-chloro-N-methyl-8-(trifluoromethyl)quinazolin-4-amine]
≥ 80%: percent control (mortality or growth inhibition) at 200 ppm [1] | percent control (mortality, anti-feedant effect or growth inhibition) at 200 ppm [2] | percent control (mortality or growth inhibition) at 200 ppm [3] | percent control (mortality, anti-feedant effect or growth inhibition) at 200 ppm [4]

CC(c1nccnc1-n1nccn1)N(C)c1ncnc2c(Br)cc(Cl)cc12 (stereo not shown) [P.174, 8-bromo-6-chloro-N-methyl-N-[1-[3-(triazol-2-yl)pyrazin-2-yl]ethyl]quinazolin-4-amine]
≥ 80%: percent control (mortality or growth inhibition) at 200 ppm [1] | percent control (mortality, anti-feedant effect or growth inhibition) at 200 ppm [2] | percent control (mortality or growth inhibition) at 200 ppm [3] | percent control (mortality, anti-feedant effect or growth inhibition) at 200 ppm [4]

CC(c1nccnc1-c1ccc(C#N)cn1)N(CC1CC1)c1ncnc2c(C(F)(F)F)cc(C(F)(F)F)cc12 (stereo not shown) [P.126, 6-[3-[1-[[6,8-bis(trifluoromethyl)quina-zolin-4-yl]-(cyclopropylmethyl)amino]ethyl]pyrazin-2-yl]pyridine-3-carbonitrile]
≥ 80%: percent control (mortality or growth inhibition) at 200 ppm [1] | percent control (mortality, anti-feedant effect or growth inhibition) at 200 ppm [2] | percent control (mortality or growth inhibition) at 200 ppm [3] | percent control (mortality, anti-feedant effect or growth inhibition) at 200 ppm [4]

CC(Nc1ncnc2c(Br)cc(C(F)(F)F)cc12)c1nccnc1-c1ccc(OC(F)F)cn1 (stereo not shown) [P.111, 8-bromo-N-[1-[3-[5-(difluoromethoxy)-2-pyridyl]pyrazin-2-yl]ethyl]-6-(trifluoromethyl)quinazolin-4-amine]
≥ 80%: percent control (mortality or growth inhibition) at 200 ppm [1] | percent control (mortality, anti-feedant effect or growth inhibition) at 200 ppm [2] | percent control (mortality or growth inhibition) at 200 ppm [3] | percent control (mortality, anti-feedant effect or growth inhibition) at 200 ppm [4]

C[C@H](Nc1ncnc2c(I)cc(C(F)(F)F)cc12)c1nccnc1-c1ccc(C#N)cn1 [P.161, 6-[3-[(1S)-1-[[8-iodo-6-(trifluoromethyl)quinazolin-4-yl]amino]ethyl]pyrazin-2-yl]pyridine-3-carbonitrile]
≥ 80%: percent control (mortality or growth inhibition) at 200 ppm [1] | percent control (mortality, anti-feedant effect or growth inhibition) at 200 ppm [2] | percent control (mortality or growth inhibition) at 200 ppm [3] | percent control (mortality, anti-feedant effect or growth inhibition) at 200 ppm [4]

CC(Nc1ncnc2c(Br)cc(Cl)cc12)c1nccnc1-n1nccn1 (stereo not shown) [P.173, 8-bromo-6-chloro-N-[1-[3-(triazol-2-yl)pyrazin-2-yl]ethyl]quinazolin-4-amine]
≥ 80%: percent control (mortality or growth inhibition) at 200 ppm [1] | percent control (mortality, anti-feedant effect or growth inhibition) at 200 ppm [2] | percent control (mortality or growth inhibition) at 200 ppm [3] | percent control (mortality, anti-feedant effect or growth inhibition) at 200 ppm [4]

CC(Nc1ncnc2c(Br)cc(C(F)(F)F)cc12)c1nccnc1-n1nccn1 (stereo not shown) [P.34, 8-bromo-N-[1-[3-(triazol-2-yl)pyrazin-2-yl]ethyl]-6-(trifluoromethyl)quinazolin-4-amine]
≥ 80%: percent control (mortality or growth inhibition) at 200 ppm [1] | percent control (mortality, anti-feedant effect or growth inhibition) at 200 ppm [2] | percent control (mortality or growth inhibition) at 200 ppm [3] | percent control (mortality, anti-feedant effect or growth inhibition) at 200 ppm [4]

CC(c1nccnc1-c1ncccn1)N(CC1CC1)c1ncnc2c(Br)cc(C(F)(F)F)cc12 (stereo not shown) [P.99, 8-bromo-N-(cyclopropylmethyl)-N-[1-(3-pyrimidin-2-ylpyrazin-2-yl)ethyl]-6-(trifluoromethyl)quinazolin-4-amine]
≥ 80%: percent control (mortality or growth inhibition) at 200 ppm [1] | percent control (mortality, anti-feedant effect or growth inhibition) at 200 ppm [2] | percent control (mortality or growth inhibition) at 200 ppm [3] | percent control (mortality, anti-feedant effect or growth inhibition) at 200 ppm [4]

CC(c1ncnn1-c1ccc(C#N)cn1)N(C#N)c1ncnc2c(C(F)(F)F)cc(C(F)(F)F)cc12 (stereo not shown) [P.9, [6,8-bis(trifluoromethyl)quina-zolin-4-yl]-[1-[2-(5-cyano-2-pyridyl)-1,2,4-triazol-3-yl]ethyl]cyanamide]
≥ 80%: percent control (mortality or growth inhibition) at 200 ppm [1] | percent control (mortality, anti-feedant effect or growth inhibition) at 200 ppm [2] | percent control (mortality or growth inhibition) at 200 ppm [3] | percent control (mortality, anti-feedant effect or growth inhibition) at 200 ppm [4]
